Experiment [1] concerns Hepatocyte. The experiment in a line: Hepatoprotective activity against carbon tetrachloride-induced hepatotoxicity in fasted Sprague-Dawley rat hepatocytes assessed as serum glutamic oxaloacetic transaminase release at 0.01 mg/ml administered before 10 mins of carbon tetrachloride challenge measured after 30 mins. Type of experiment: functional.
The subject of experiment [2] is Hepatocyte. Nature of the experiment: Hepatoprotective activity against carbon tetrachloride-induced hepatotoxicity in fasted Sprague-Dawley rat hepatocytes assessed as serum glutamic oxaloacetic transaminase release at 0.1 mg/ml administered before 10 mins of carbon tetrachloride challenge measured after 30 mins. Type of experiment: functional.
The subject of experiment [3] is Hepatocyte. The experiment in a line: Hepatoprotective activity against carbon tetrachloride-induced hepatotoxicity in fasted Sprague-Dawley rat hepatocytes assessed as serum glutamic oxaloacetic transaminase release at 1 mg/ml administered before 10 mins of carbon tetrachloride challenge measured after 30 mins. Type of experiment: functional.
Experiment [4] deals with Hepatocyte. The experiment in a line: Hepatoprotective activity against carbon tetrachloride-induced hepatotoxicity in fasted Sprague-Dawley rat hepatocytes assessed as serum glutamic oxaloacetic transaminase release at 3 mg/ml administered before 10 mins of carbon tetrachloride challenge measured after 30 mins. Type of experiment: functional.
Experiment [5] relates to Hepatocyte. Nature of the experiment: Hepatoprotective activity against carbon tetrachloride-induced hepatotoxicity in fasted Sprague-Dawley rat hepatocytes assessed as serum glutamic pyruvate transaminase release at 0.01 mg/ml administered before 10 mins of carbon tetrachloride challenge measured after 30 mins. Type of experiment: functional.
In experiment [6] the test system is Hepatocyte. The experiment in a line: Hepatoprotective activity against carbon tetrachloride-induced hepatotoxicity in fasted Sprague-Dawley rat hepatocytes assessed as serum glutamic pyruvate transaminase release at 0.1 mg/ml administered before 10 mins of carbon tetrachloride challenge measured after 30 mins. Type of experiment: functional.
Experiment [7] relates to Hepatocyte. The experiment in a line: Hepatoprotective activity against carbon tetrachloride-induced hepatotoxicity in fasted Sprague-Dawley rat hepatocytes assessed as serum glutamate pyruvate transaminase release at 1 mg/ml administered before 10 mins of carbon tetrachloride challenge measured after 30 mins. Type of experiment: functional.
Experiment [8] concerns Hepatocyte. The experiment in a line: Hepatoprotective activity against carbon tetrachloride-induced hepatotoxicity in fasted Sprague-Dawley rat hepatocytes assessed as serum glutamic pyruvate transaminase release at 3 mg/ml administered before 10 mins of carbon tetrachloride challenge measured after 30 mins. Type of experiment: functional.
Experiment [9] is described as follows: Effect on glutamate oxaloacetic transaminase activity at 1 mg/ml.
Experiment [10] is described as follows: Effect on glutamate oxaloacetic transaminase activity at 3 mg/ml.
For experiment [11], the target named is T1, Alanine aminotransferase 1 (Homo sapiens) (UniProt P24298).
T1 sequence (whole entry): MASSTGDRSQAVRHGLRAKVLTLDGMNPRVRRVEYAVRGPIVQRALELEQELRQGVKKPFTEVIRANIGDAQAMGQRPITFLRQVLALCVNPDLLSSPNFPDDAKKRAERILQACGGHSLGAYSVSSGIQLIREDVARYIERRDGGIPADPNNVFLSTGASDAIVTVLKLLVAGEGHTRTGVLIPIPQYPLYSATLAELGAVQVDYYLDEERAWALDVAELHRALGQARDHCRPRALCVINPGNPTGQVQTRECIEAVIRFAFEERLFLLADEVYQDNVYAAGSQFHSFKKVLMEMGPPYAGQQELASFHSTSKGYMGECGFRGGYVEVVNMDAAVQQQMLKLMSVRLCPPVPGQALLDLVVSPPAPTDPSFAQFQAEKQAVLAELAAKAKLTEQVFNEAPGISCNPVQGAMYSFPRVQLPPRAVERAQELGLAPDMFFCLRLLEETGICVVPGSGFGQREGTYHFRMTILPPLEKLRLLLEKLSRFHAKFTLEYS
Nature of the experiment: Effect on glutamic pyruvate transaminase activity at 1 mg/ml.

In experiment [12] the target is T1, Alanine aminotransferase 1 (Homo sapiens). Nature of the experiment: Effect on glutamic pyruvate transaminase activity at 3 mg/ml.
A short description of experiment [13]: Effect on glutamate oxaloacetic transaminase activity at 0.1 mg/ml.
Experiment [14] addresses T1, Alanine aminotransferase 1 (Homo sapiens). Nature of the experiment: Effect on glutamic pyruvate transaminase activity at 0.1 mg/ml.

As for `O=C(/C=C/c1ccc(O)c(O)c1)O[C@@H]1C[C@@](OC(=O)/C=C/c2ccc(O)c(O)c2)(C(=O)O)C[C@@H](O)[C@@H]1O` [CYNARIN], the Activity in experiment [1] is given as 17.6%; in [2] it was 17.9%; in experiment [3], 17.6%; in experiment [4] it was 16.5%; in [5], 16.3%; in experiment [6] it was 16.8%. For the same compound, the Activity in experiment [7] came to 13.9%; in experiment [8], 13.3%; in [9] it was 126 U/L; in experiment [10], 123 U/L; in experiment [11] it was 103 U/L; in experiment [12], 110 U/L.
For the compound `O=C(O)[C@]1(O)C[C@@H](O)[C@@H](O)[C@H](O)C1` [QUINIC ACID], the Activity came to 18.4% in [1]; 21.9% in [2]; 21.2% in experiment [3]; 21.2% in experiment [4]; 15.5% in [5]; 18.1% in experiment [6]. Also, the Activity in experiment [7] is given as 17.4%; in [8], 17%.
Consider `O=c1cc(-c2ccc(O)c(O)c2)oc2cc(O[C@@H]3O[C@H](CO)[C@@H](O)[C@H](O)[C@H]3O)cc(O)c12` [GALUTEOLIN], for which the Activity came to 21.9% in experiment [1]; 20.4% in experiment [2]; 21.1% in experiment [3]; 22.8% in experiment [4]; 15.9% in experiment [5]; 14.9% in experiment [6]. In addition, the Activity in experiment [7] was determined as 15.9%; in experiment [8], 20.9%; in experiment [9] it was 139 U/L; in experiment [11] it was 111 U/L.
As for `O=C(O)/C=C/c1ccc(O)c(O)c1` [CAFFEIC ACID], the Activity in [1] is given as 21%; in experiment [2] it was 19.9%; in experiment [3], 18.6%; in [4], 22.1%; in experiment [5], 19%; in [6], 17.5%. Moreover, the Activity in experiment [7] worked out at 13.4%; in experiment [8], 16.7%; in experiment [9] it was 123 U/L; in experiment [11], 97 U/L.
Consider `O=C(/C=C/c1ccc(O)c(O)c1)O[C@@H]1C[C@](O)(C(=O)O)C[C@@H](O)[C@H]1O` [CHLOROGENIC ACID], for which the Activity in experiment [1] is 19.5%; in experiment [2], 19.4%; in experiment [3], 20.6%; in [4], 20.6%; in experiment [5], 16.7%; in experiment [6] it was 15.3%. Also, the Activity stood at 17.7% in experiment [7] and 15.9% in experiment [8].
On to `Oc1cc(O)c2c(c1)O[C@H](c1ccc(O)c(O)c1)[C@@H](O)C2` [CIANIDANOL], for which the Activity in [1] is 16.8%; in experiment [2], 18.3%; in experiment [3] it was 21%; in [4], 22.4%; in experiment [5], 13.5%; in experiment [6], 14.3%. Also, the Activity was 17.3% in experiment [7], 20.1% in experiment [8], 127 U/L in experiment [13] and 103 U/L in experiment [14].

The values are drawn from ChEMBL document CHEMBL1150721, “Hepatoprotective activity of polyphenolic compounds from Cynara scolymus against CCl4 toxicity in isolated rat hepatocytes” (1987).
